Assays:
Nfe2l2 = test: Relative gene expression of Nfe2l2 in BMCs (qRT-PCR); assay type: cell-based, mouse; details: 2 μM, 4 h
Source text: Primary bone marrow cells (BMCs) were isolated from 8–12-week-old male C57BL/6 mice (25–30 g, AnLab, Czech Republic). Mice were housed under standard conditions. BMCs were isolated as follows: The day before isolation, phosphate-buffered saline (PBS), ACK Lysis Buffer (A10492-01, Thermo Fisher Scientific), and Iscove’s Modified Dulbecco’s Medium (IMDM) (12440-053, Thermo Fisher Scientific) were placed in a hypoxic chamber (InvivO2 400, Baker Ruskinn, UK) with adjustable oxygen control to equilibrate for the target oxygen concentrations. On the day of the experiment, animals were euthanized using ketamine/xylazine, and bilateral femurs were extracted. […] After hemolysis at room temperature using hypoxic ACK Lysis Buffer, nucleated BMCs were washed with hypoxic PBS + 2% FBS and counted using a TC20 automated cell counter (Bio-Rad). […]
3 Expression of NRF2 and its target genes in response to NO2FA derivatives. BMCs were cultured under 4% or 1% oxygen conditions and treated for 4 h with the tested NO 2 FAs (2 μM) or medium followed by quantification of (A) Nfe2l2, (B) Hmox1, and (C) Gclm with PCR. […] Data are expressed as mean ± SD from 3 to 7 independent experiments (n = 3–7), analyzed with one-way ANOVA with Dunnett’s multiple comparisons test compared to the controls (*p < 0.05; **p < 0.01; ***p < 0.001).

Gclm = test: Relative gene expression of Gclm in BMCs (qRT-PCR); assay type: cell-based, mouse; details: 2 μM, 4 h; for Gclm relative expression: 4% and 1% oxygen
Source text: Primary bone marrow cells (BMCs) were isolated from 8–12-week-old male C57BL/6 mice (25–30 g, AnLab, Czech Republic). Mice were housed under standard conditions. BMCs were isolated as follows: The day before isolation, phosphate-buffered saline (PBS), ACK Lysis Buffer (A10492-01, Thermo Fisher Scientific), and Iscove’s Modified Dulbecco’s Medium (IMDM) (12440-053, Thermo Fisher Scientific) were placed in a hypoxic chamber (InvivO2 400, Baker Ruskinn, UK) with adjustable oxygen control to equilibrate for the target oxygen concentrations. On the day of the experiment, animals were euthanized using ketamine/xylazine, and bilateral femurs were extracted. BMCs were flushed with hypoxic (1% O2 unless stated otherwise) PBS supplemented with 2% fetal bovine serum (FBS; low endotoxin, FB-1101/500, Biosera, France). After hemolysis at room temperature using hypoxic ACK Lysis Buffer, nucleated BMCs were washed with hypoxic PBS + 2% FBS and counted using a TC20 automated cell counter (Bio-Rad). Cells were kept under hypoxic conditions prior to treatment. The medium for BMC culture, consisting of IMDM with 2% FBS and 1% penicillin/streptomycin (LM-A4118/100, Biosera, France), was supplemented with 10 ng/mL mouse IL-3, 10 ng/mL mouse IL-6, and 50 ng/mL mouse stem cell factor - SCF (213-13, 216-16, and 250-03, respectively; all from PeproTech). Cells were cultured at 37 °C in a humidified atmosphere containing 5% CO2 and the specified oxygen concentrations (21%, 4%, or 1%).
For the relative gene expression of nuclear factor erythroid 2-related factor 2 (NRF2, encoded by Nfe2l2), heme oxygenase-1 (Hmox1), and Glutamate-Cysteine Ligase Modifier Subunit (Gclm) (Mm00477784_m1, Mm00516005_m1, Mm00514996_m1, all from Thermo Fisher Scientific), mouse BMC (3 × 10^6 cells) were cultivated on a 6-well plate in 1.5 mL of complete media (see Isolation and culture of primary cells), and then incubated with 2 μM NO2FAs or control (medium only) for 4 h at the specified oxygen levels (21%, 4%, or 1%). Then, the adherent and nonadherent cells were washed with PBS and lysed using a NucleoSpin RNA Plus kit (740984, Machery-Nagel; Germany). The concentration and purity of isolated RNA was assessed using an Infinite M200 Pro spectrophotometer (Tecan, Austria). Total RNA (0.2 μg) was reversely transcribed into first strand cDNA using a RevertAid First Strand cDNA Synthesis kit according to the manufacturer’s protocol (K1622, Thermo Fisher Scientific). qRT-PCR reactions were performed in a LightCycler480 instrument (Roche; Switzerland) using TaqMan FastAdvanced Master Mix for qPCR (4444557, Thermo Fisher Scientific) and the following program was used: uracil-N-glycosylase activation step at 50 °C for 2 min, an initial denaturation step at 95 °C for 2 min, followed by 45 cycles (95 °C for 3 s, 60 °C for 30 s), and a final cooling step at 40 °C for 1 min. Data were normalized to ribosomal protein L32 (Rpl32, Mm02528467_g1, Thermo Fisher Scientific) and presented as 2^–Δcq.
3 Expression of NRF2 and its target genes in response to NO2FA derivatives. BMCs were cultured under 4% or 1% oxygen conditions and treated for 4 h with the tested NO 2 FAs (2 μM) or medium followed by quantification of (A) Nfe2l2, (B) Hmox1, and (C) Gclm with PCR. Results are presented as relative expression across different oxygen culture conditions. Dimethyl fumarate (DMF) was added as a control. Data are expressed as mean ± SD from 3 to 7 independent experiments (n = 3–7), analyzed with one-way ANOVA with Dunnett’s multiple comparisons test compared to the controls (*p < 0.05; **p < 0.01; ***p < 0.001).
Relative expression of (A) Hmox1 and (B) Gclm in different oxygen […]
Figure S 2. Relative expression of (A) Hmox1 and (B) Gclm in different oxygen conditions. BMCs were cultured under varying oxygen conditions (21, 4, and 1%) and treated for 4 hours with the tested 10 -NO₂OA (2 µM) or medium followed by quantification […]
with PCR. […]

NRF2 [1] = details: comparison of positional isomers; literature; cited from earlier work
NRF2 [2] = details: colon cancer cell line, versus shorter or longer chain derivatives; literature; cited from earlier work
Gclm and Hmox1 = system: Gclm and Hmox1; set-up: method as in Khoo et al.; details: compared to other derivatives; ref Khoo et al.; cited from earlier work
NRF2 [3] = test: Immunocytochemistry of NRF2 in BMCs; assay type: cell-based, mouse; details: 1 h, 1% oxygen
Description: BMCs (2 × 10^6 cells in 300 μL of complete medium) were incubated with 10-NO 2 OA or control medium for 1 h in a 1% oxygen incubator. Cells were then washed with PBS, resuspended in fresh PBS, and plated on an 8-well μ-slide (ibidi, Germany). After allowing cells to settle (10 min), PBS was aspirated, and cells were fixed with 4% paraformaldehyde for 10 min. From this step onward, all work was performed under atmospheric conditions. Cells were washed twice, permeabilized with 0.1% Triton X-100, washed again, and blocked with 1% BSA/PBS. Samples were incubated with primary anti-NRF2 antibody (1:100, SAB4501384, Millipore) overnight at 4 °C. After washing, a secondary Alexa Fluor 647 antibody (1:100, A31573, Invitrogen) was added for 1 h at room temperature in the dark. After washes, nuclei were stained with DAPI (0.5 μg/mL, Merck) for 10 min at room temperature in the dark, washed, and mounted on a microscope slide. Images were acquired with an Olympus FV10i (Olympus, Japan) scanning microscope and analyzed using ImageJ v1.52 (NIH).
5 Subcellular localization of NRF2. NO 2 FA derivatives promote nuclear translocation of NRF2 in mouse BMCs. BMCs were cultured under 1% oxygen conditions and treated for 1 h with 2 μM of 10-NO 2 OA, 10-NO 2 LA, or 10-NO 2 SA. […] Data are expressed as mean ± SD from two independent experiments (n = 2). […]

## CCCCCCCC/C=C(\CCCCCCCC(=O)O)[N+](=O)[O-] [9-NO2OA, (9E)-9-Nitro-oleic Acid]
Nfe2l2; 4% oxygen
  Nfe2l2 relative expression: significantly increased
Gclm
  Gclm relative expression: significant upregulation
NRF2 [1]
  NRF2 activation (ARE-reporter luciferase): preferentially activated NRF2 over 10-NO 2 OA
NRF2 [2]
  NRF2 induction: induced NRF2 more robustly

## CCCCCC/C=C/C=C(\CCCCCCCC(=O)O)[N+](=O)[O-] [9-NO2cLA, (9E,11E)-9-Nitro Conjugated Linoleic Acid]
Gclm
  Gclm relative expression: upregulation that was dependent on oxygen levels

## CCCCC/C=C\C/C(=C\CCCCCCCC(=O)O)[N+](=O)[O-] [10-NO2LA, (9E,12Z)-10-Nitro Linoleic Acid]
Gclm
  Gclm relative expression: upregulation that was dependent on oxygen levels or specific target genes

## CCCCCCCC/C(=C\CCCCCCCC(=O)O)[N+](=O)[O-] [10-NO2OA, (9E)-10-Nitro-oleic Acid]
Gclm; 1% vs 21% oxygen
  Gclm expression at 1% oxygen compared to 21%: not observed
Gclm
  Gclm relative expression: significant upregulation
Gclm and Hmox1
  expression of Gclm and Hmox1: induced a higher expression
NRF2 [3]
  colocalization of NRF2 with the nucleus: increased colocalization

## CCCCCCCCC(CCCCCCCCC(=O)O)[N+](=O)[O-] (stereo not drawn) [10-NO2SA, 10-Nitro Stearic acid]
Nfe2l2; 4% and 1% oxygen
  Nfe2l2 relative expression: no effects
Gclm
  Gclm relative expression: no effects

— publication PMC12169669, “Regio- and Stereoselective Synthesis of Nitro-fatty Acids as NRF2 Pathway Activators Working under Ambient or Hypoxic Conditions” (Journal of Medicinal Chemistry, 2025)
